Tests used:
aminopeptidases [1] = assay: In situ nasal perfusion: degradation of 100 µM leucine enkephalin in the nasal perfusate; assay type: in vivo, Sprague-Dawley rats; conditions: for order of inhibition of degradation: 0.1 µM boroleucine, 10 µM bestatin, 100 µM puromycin; for % Leucine Enkephalin Remaining: 0.1 µM inhibitor
Description: In order to evaluate the effectiveness of the α-aminoboronic acid derivative inhibitors of this invention, an animal model was used (according to A. Hussain, J. Furaj, A. Yukihiko and J. E. Truelove, Biochem. Biophys. Res. Com. 133, 923, 1985) to assess the degradation of proteins and peptides in situ and in vivo in situ in the nasal cavity of rats. The method involved the use of Sprague-Dawley rats weighing approximately 300 grams. Each rat was anesthetized with sodium pentobarbitol (50 mg/kg). An incision was made in the neck and the trachea was canulated with PE 240 tubing. For the in situ studies, a second tube, which served to introduce the perfusing solution, was inserted through the esophagus to the posterior part of the nasal cavity. The nasopalatine was closed with an adhesive to prevent drainage of the perfusing solution from the nasal to the oral cavity. For the in vivo in situ studies, the esophagus was canulated using PE 240 tubing closed at one end. The closed end was pushed to the posterior end of the nasal passage and then tied in place. The nasopalatine was closed with an adhesive to prevent drainage of the perfusing solution from the nasal to the oral cavity. The rats were dosed in one nostril with 50 µl of peptide solution in two forms; the control solution had no inhibitor added, the test solution had inhibitor added at concentrations specified in the examples shown below. The dosing solution was 0.1 M phosphate buffer (pH 7.4). At certain time intervals (one rat/time interval), the drug was washed from the nose via the other nostril with 10 ml of 0.1 M phosphate buffer (pH 3.8) using a peristaltic pump. The nasal washing was then placed in a 10 ml volumetric flask and adjusted to 10 ml with the same buffer and analyzed for the peptide by HPLC. The analysis of leucine enkephalin and its major metabolite involved taking aliquots of samples, diluting them with 200 µl of 0.1 M citric acid (pH 2.3) to quench hydrolysis and subjecting the samples to analysis (for in vivo in situ studies, the washings were injected as they were obtained). High Pressure Liquid Chromatography (HPLC) was run on a 4.6 x 250 mm C₈ column. The mobile phase consisted of 0.1 M NaH₂PO₄-H₃PO₄-acetonitrile (916 : 5 : 275) and was delivered at a flow rate of 1.7 ml/min. Detection was by UV at 210 nm. Retention times for leucine enkephalin and its major degradation product, Des-Tyr-leucine enkephalin were 7.3 and 4.8 min., respectively. Data were calculated as % of leucine enkephalin remaining in the nasal perfusate as a function of time, counting the concentration at zero time as 100%. In this example, a 10 ml solution of 0.1 M phosphate buffer solution (pH 7.4) containing 100 µM leucine enkephalin (the peptide) in the absence or presence of 0.1 µM 3-methyl-1(4,4,5,5-tetramethyl-1,3,2-dioxaborolane-2-yl)-1-butamine, trifluoroacetic acid salt (boroleucine) as the inhibitor was perfused nasally in rats as described above. A 10 ml portion of the peptide solution was placed in a water-jacketed container, maintained at 37°C and circulated through the nasal cavity of rats using a peristaltic pump. The perfusing solution was passed through the nasal cavity, out the nostrils, through a funnel, and returned to the water-jacketed container. The perfusate was analyzed by the ANALYTICAL METHOD described above.

aminopeptidases [2] = assay: as above; assay type: in vivo, Sprague-Dawley rats; conditions: 10 µM inhibitor
[3] = in vivo, cited from earlier work

CC(C)C[C@H](NC(=O)[C@@H](O)[C@H](N)Cc1ccccc1)C(=O)O [Bestatin, bestatin, reference compound]
order of inhibition of degradation (aminopeptidases [1]): boroleucine> bestatin> puromycin | % of leucine enkephalin remaining in the nasal perfusate (aminopeptidases [1]; 10 µM inhibitor, 0 min): 100.0±0.0% | % of leucine enkephalin remaining in the nasal perfusate (aminopeptidases [1]; 10 µM inhibitor, 10 min): 94.7±1.7% | % of leucine enkephalin remaining in the nasal perfusate (aminopeptidases [1]; 10 µM inhibitor, 30 min): 86.6±3.8% | % of leucine enkephalin remaining in the nasal perfusate (aminopeptidases [1]; 10 µM inhibitor, 45 min): 79.0±5.3% | % of leucine enkephalin remaining in the nasal perfusate (aminopeptidases [1]; 10 µM inhibitor, 90 min): 57.3±8.8% | % of leucine enkephalin remaining in the nasal perfusate (aminopeptidases [2]; 5 min): 97.3±1.6% | % of leucine enkephalin remaining in the nasal perfusate (aminopeptidases [2]; 20 min): 90.0±3.3% | % of leucine enkephalin remaining in the nasal perfusate (aminopeptidases [2]; 60 min): 72.3±6.7%

COc1ccc(C[C@H](N)C(=O)N[C@H]2[C@@H](O)[C@H](n3cnc4c(N(C)C)ncnc43)O[C@@H]2CO)cc1 [Puromycin, puromycin, reference compound]
order of inhibition of degradation (aminopeptidases [1]): boroleucine> bestatin> puromycin | % of leucine enkephalin remaining in the nasal perfusate (aminopeptidases [1]; 100 µM inhibitor, 0 min): 100.0±0.0% | % of leucine enkephalin remaining in the nasal perfusate (aminopeptidases [1]; 100 µM inhibitor, 5 min): 96.7±2.4% | % of leucine enkephalin remaining in the nasal perfusate (aminopeptidases [1]; 100 µM inhibitor, 10 min): 91.3±3.4% | % of leucine enkephalin remaining in the nasal perfusate (aminopeptidases [1]; 100 µM inhibitor, 20 min): 82.4±4.1% | % of leucine enkephalin remaining in the nasal perfusate (aminopeptidases [1]; 100 µM inhibitor, 30 min): 78.5±3.2% | % of leucine enkephalin remaining in the nasal perfusate (aminopeptidases [1]; 100 µM inhibitor, 45 min): 73.6±2.2% | % of leucine enkephalin remaining in the nasal perfusate (aminopeptidases [1]; 100 µM inhibitor, 60 min): 63.5±5.6% | % of leucine enkephalin remaining in the nasal perfusate (aminopeptidases [1]; 100 µM inhibitor, 90 min): 48.9±6.7%

CC(N)B1OC(C)(C)C(C)(C)O1.O=C(O)C(F)(F)F (stereo not drawn) [boroalanine, α,4,4,5,5-pentamethyl-1,3,2-dioxaborolane-2-methanamine, trifluoroacetic acid salt]
% Leucine Enkephalin Remaining (aminopeptidases [1]; 0 min): 100.0± 0.0% | % Leucine Enkephalin Remaining (aminopeptidases [1]; 5 min): 94.7± 3.0% | % Leucine Enkephalin Remaining (aminopeptidases [1]; 10 min): 91.9± 2.1% | % Leucine Enkephalin Remaining (aminopeptidases [1]; 20 min): 88.5± 2.2% | % Leucine Enkephalin Remaining (aminopeptidases [1]; 30 min): 84.1± 3.1% | % Leucine Enkephalin Remaining (aminopeptidases [1]; 45 min): 77.5± 4.4% | % Leucine Enkephalin Remaining (aminopeptidases [1]; 60 min): 69.9± 6.7% | % Leucine Enkephalin Remaining (aminopeptidases [1]; 90 min): 56.4±12.1%

CC(C)C(N)B1OC(C)(C)C(C)(C)O1.O=C(O)C(F)(F)F (stereo not drawn) [borovaline, 4,4,5,5-tetramethyl-α-(1-methylethyl)-1,3,2-dioxaborolane-2-methanamine, trifluoroacetic acid salt]
% Leucine Enkephalin Remaining (aminopeptidases [1]; 0 min): 100.0±0.0% | % Leucine Enkephalin Remaining (aminopeptidases [1]; 5 min): 96.3±1.9% | % Leucine Enkephalin Remaining (aminopeptidases [1]; 10 min): 95.7±1.5% | % Leucine Enkephalin Remaining (aminopeptidases [1]; 20 min): 94.8±1.4% | % Leucine Enkephalin Remaining (aminopeptidases [1]; 30 min): 91.6±1.6% | % Leucine Enkephalin Remaining (aminopeptidases [1]; 45 min): 89.1±2.5% | % Leucine Enkephalin Remaining (aminopeptidases [1]; 60 min): 86.2±2.5% | % Leucine Enkephalin Remaining (aminopeptidases [1]; 90 min): 78.3±4.3% | comparison of the inhibitory effect of equimolar concentrations (aminopeptidases [1]; 0.1 µM of each inhibitor): superior to boroalanine

leuprolide
improvement of bioavailability over the oral route (factor) ([3]; po): 112 times | drug absorbed systemically ([3]; sc): over 65%
